One data set concerns Phaedon cochleariae. The experiment in a line: Phaedon cochleariae spray test. Conditions: larvae on Chinese cabbage leaf discs, after 7 days.
The nature of data set [1]: log P determination by HPLC on reversed-phase column (C18), EEC Directive 79/831 Annex V.A8, acidic (formic acid). Type of data set: physicochemical. The settings on record: HPLC method a), acetonitrile/water with formic acid. On the procedure:
^1 The stated mass is the peak of the isotope pattern of the [M+H]^+ ion of the highest intensity; if the [M-H]^- ion was detected, the stated mass is identified with ^2. ^2 The stated mass is the peak of the isotope pattern of the [M-H]^- ion of the highest intensity. ^a) Note regarding the determination of the log P values and mass detection: The determination of the given log P values was carried out in accordance with EEC Directive 79/831 Annex V.A8 by HPLC (High Performance Liquid Chromatography) on a reversed-phase column (C18). […] Mass detection is effected by means of an […] system. ^b) Note regarding the determination of the retention time and mass detection: The stated retention times were determined on a reversed-phase column (C18) Shimadzu LCMS 2020; 50*3.0 Shimadzu shim-pack XR-ODS 2.2 micron; mobile phase A: water (0.05% TFA); mobile phase B: acetonitrile; linear gradient from 5% acetonitrile to 95% acetonitrile in 6.00 min, then 95% acetonitrile for a further 1.1 min; oven temperature 40° C.; flow rate: 1.0 ml/min. ^c) Note regarding the determination of the retention time and mass detection: Instrument: Waters ACQUITY SQD UPLC system; column. Waters Acquity UPLC HSS T3 1.8μ 50×1 mm; mobile phase A: 1 l of water+0.25 ml of 99% strength formic acid, mobile phase B: 1 l of acetonitrile+0.25 ml of 99% strength formic acid; gradient: 0.0 min 90% A→1.2 min 5% A→2.0 min 5% A oven: 50° C.; flow rate: 0.40 ml/min; UV detection: 208-400 nm. ^d) Note regarding the determination of the retention time and mass detection: […] The determination of the given log P values was carried out in accordance with EEC Directive 79/831 Annex V.A8 by HPLC (High Performance Liquid Chromatography) on a reversed-phase column (C18). […] Mass detection is effected by means of an […] system.

In the data set on Phaedon cochleariae (500 g/ha), `Cn1nc(C(F)(F)C(F)(F)F)c(C(F)(F)F)c1-c1nc(-c2ccc(Cl)c(C(=O)NC3CC3)c2)ns1` [Ibd-3, 2-chloro-N-cyclopropyl-5-{5-[1-methyl-3-(pentafluoroethyl)-4-(trifluoromethyl)-1H-pyrazol-5-yl]-1,2,4-thiadiazol-3-yl}benzamide] displayed an efficacy of 100%.

For orientation: logP means the decadic logarithm of the partition coefficient of the neutral form, usually between octanol and water. `CC(C)n1nc(-c2ccc(Cl)c(C(=O)NC3CC3)c2)nc1-c1c(C(F)(F)F)c(C(F)(F)C(F)(F)F)nn1C` [Ibg-13] displayed a logP in data set [1] of 4.35. The molecule further yielded an efficacy in the data set with Phaedon cochleariae (500 g/ha) of 100%.

The chromatographic logP is lipophilicity estimated from chromatographic retention. A low value points to a more hydrophilic compound. Consider `Cn1nc(C(F)(F)C(F)(F)F)c(C(F)(F)F)c1-c1nnc(-c2cccc(C(=O)NC3CC3)c2)s1` [Iaj-1, N-cyclopropyl-3-{5-[1-methyl-3-(pentafluoroethyl)-4-(trifluoromethyl)-1H-pyrazol-5-yl]-1,3,4-thiadiazol-2-yl}benzamide], for which, in data set [1], the chromatographic logP came out at 3.72. The molecule also displayed an efficacy in the data set with Phaedon cochleariae (500 g/ha) of 100%.

In data set [1], `CC(C)n1nc(-c2c(C(F)(F)F)c(C(F)(F)C(F)(F)F)nn2C)nc1-c1ccc(Cl)c(C(=O)NC2CC2)c1` [Ibh-6] yielded a lipophilicity (logP) of 4.39. This molecule also came in with an efficacy in the data set with Phaedon cochleariae (500 g/ha) of 100%.

Regarding `Cn1nc(C(F)(F)C(F)(F)F)c(C(F)(F)F)c1-c1noc(-c2ccc(Cl)c(C(=O)Nc3ccc(F)cc3)c2)n1` [Ibe-3], the logP in data set [1] came to 4.91. The efficacy in the data set with Phaedon cochleariae (500 g/ha) was 100%.

Consider `Cn1nc(-c2ccc(Cl)c(C(=O)NC3CC3)c2)nc1-c1c(C(F)(F)F)c(C(F)(F)C(F)(F)F)nn1C` [Ibg-7], for which the logP in data set [1] is reported as 3.80. Also, the efficacy in the data set on Phaedon cochleariae (500 g/ha) stood at 100%.

For `Cn1nc(C(F)(F)C(F)(F)F)c(C(F)(F)F)c1-c1ncc(-c2cccc(C(=O)NC3(C#N)CC3)c2)s1` [Iaq-1, N-(1-cyanocyclopropyl)-3-{2-[1-methyl-3-(pentafluoroethyl)-4-(trifluoromethyl)-1H-pyrazol-5-yl]-1,3-thiazol-5-yl}benzamide], the chromatographic logP in data set [1] was determined as 3.93. In the data set on Phaedon cochleariae (100 g/ha), this molecule displayed an efficacy of 100%.

In data set [1], `CCn1nc(-c2c(C(F)(F)F)c(C(F)(F)C(F)(F)F)nn2C)nc1-c1ccc(Cl)c(C(=O)NCC(F)(F)F)c1` [Ibh-5] returned a logP of 4.32. Besides, the efficacy in the data set on Phaedon cochleariae (500 g/ha) is given as 100%.

The molecule `CN(C(=O)c1cccc(-c2cc(-c3c(C(F)(F)F)c(C(F)(F)C(F)(F)F)nn3C)nn2C)c1)C1CC1` [Iax-1, N-cyclopropyl-3-[1,2′-dimethyl-5′-(pentafluoroethyl)-4′-(trifluoromethyl)-1H,2′H-3,3′-bipyrazol-5-yl]-N-methylbenzamide] registered a chromatographic logP in data set [1] of 4.13. For the same molecule, the efficacy in the data set with Phaedon cochleariae (100 g/ha) is 100%.

On to `CCn1nc(-c2c(C(F)(F)F)c(C(F)(F)C(F)(F)F)nn2C)nc1-c1ccc(Cl)c(C(=O)NCc2ccccc2)c1` [Ibh-10], for which the logP in data set [1] is recorded as 4.59.

Turning to `CCn1nc(-c2ccc(Cl)c(C(=O)NCC(F)(F)F)c2)nc1-c1c(C(F)(F)F)c(C(F)(F)C(F)(F)F)nn1C` [Ibg-6], the logP in data set [1] came to 4.41.

`CCn1nc(-c2ccc(Cl)c(C(=O)NCc3ccccc3)c2)nc1-c1c(C(F)(F)F)c(C(F)(F)C(F)(F)F)nn1C` [Ibg-9] came in with a logP in data set [1] of 4.71. In the data set with Phaedon cochleariae (500 g/ha), this molecule had an efficacy of 100%.

With `Cn1nc(C(F)(F)C(F)(F)F)c(C(F)(F)F)c1-c1nc(-c2ccc(Cl)c(C(=O)Nc3ccc(F)cc3)c2)ns1` [Ibd-2], the logP in data set [1] is 5.17.

Take `CCn1nc(-c2ccc(Cl)c(C(=O)Nc3ccccc3)c2)nc1-c1c(C(F)(F)F)c(C(F)(F)C(F)(F)F)nn1C` [Ibg-12]: the logP in data set [1] is 4.85.

As for `Cn1nc(-c2ccc(Cl)c(C(=O)NCC(F)(F)F)c2)nc1-c1c(C(F)(F)F)c(C(F)(F)C(F)(F)F)nn1C` [Ibg-4], the logP in data set [1] is listed as 4.14.

Consider `Cn1nc(C(F)(F)C(F)(F)F)c(C(F)(F)F)c1-c1nc(-c2cccc(C(=O)NC3CC3)c2)n[nH]1` [Ibg-2], for which the logP in data set [1] is given as 3.24.

As to `Cn1nc(C(F)(F)C(F)(F)F)c(C(F)(F)F)c1-c1nnc(-c2ccc(Cl)c(C(=O)NCc3ccccc3)c2)[nH]1` [Ibi-1], the logP in data set [1] amounted to 4.00.

Values taken from US10047076B2, “Halogen-substituted compounds” (BAYER CROPSCIENCE AKTIENGESELLSCHAFT, priority 2014, dated 2018).
